Experimental data published in PubChem BioAssay AID1188 (EPA DSSTox, 2008).
Where “and” joins values, the source holds several entries; their conditions need not be identical. Equal values may be shown once. Calls of active or inactive are those of the source.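 How the source made its calls: active means a concentration killing half the fathead minnows in the acute test was determined; inconclusive means some fish died but not half at top dose; inactive means no fish died even at top dose.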

What follows are compounds tested on Fathead minnow (Pimephales promelas) acute toxicity, lethality (assay: DSSTox (EPAFHM) EPA Fathead Minnow Acute Toxicity).
Procedure, shortened: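 Activity score is an integer 1–100 scaling of log10(1/LC50 in mmol) between dataset minimum and maximum, highest potency = 100. Underlying LC50 values (mg) come from the U.S. EPA MED database.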
O=[N+]([O-])c1cc([N+](=O)[O-])c(Cl)cc1Cl showed a Potency of 0.192 µM.
Nc1c(F)c(F)c(F)c(F)c1F showed a Potency of 203 µM.
Work on Cc1ccc(O)c(C)c1 yielded a Potency of 136 µM.
In the case of CCOP(=S)(OCC)Oc1cc(C)nc(C(C)C)n1, the Potency is reported as 30.7 µM.
With CCCBr the Potency was 547 µM.
CC1(C)CC(=O)CC(=O)C1 gave a Potency of 82000 µM.
For Cc1ccccc1C=O, the Potency was 440 µM.
Oc1ccccc1Cl gave a Potency of 88.7 µM.
CC(=O)Nc1cccc(O)c1 gave a Potency of 7480 µM.
O=S(c1ccccc1)c1ccccc1 was tested, and the Potency was 432 µM.
O=Cc1cccnc1 showed a Potency of 153 µM.
Work on CCCCCCC(C)=O yielded a Potency of 281 µM.
O=C(O)C[n+]1ccccc1 was tested, and the Potency was 933 µM.
CC(Cl)CCl (configuration not stated) gave a Potency of 1120 µM.
With CCC(C)O (configuration not stated) the Potency was 49500 µM.
In the case of OCC(F)(F)F, the Potency is reported as 1190 µM.
With N#Cc1cc(Cl)ccc1N the Potency was 187 µM.
In the case of Cc1cc(C)c(O)c(C)c1, the Potency is reported as 95.4 µM.
Compound Cc1cocn1 has a Potency of 16700 µM.
In the case of C1N2CN3CN1CN(C2)C3, the Potency is reported as 355000 µM.
Work on CCCCN(C=O)CCCC yielded a Potency of 568 µM.
In the case of CCCCCCCCCCCCCC=O, the outcome is reported as “inactive; moa not determined either due to lack of toxicity at saturation or late test res”.
Compound CCOP(=S)(OCC)Oc1nc(Cl)c(Cl)cc1Cl has a Potency of 0.907 µM.
Work on CC(C)(C)c1cc(C(C)(C)C)c(O)c(C(C)(C)C)c1 yielded a Potency of 0.232 µM.
For ClCCCl, the Potency was 1370 µM.
Compound O=C(c1ccccc1)c1ccccc1 has a Potency of 80.7 µM.
COC(C)(C)C was tested, and the Potency was 7620 µM.
Work on OCCN(CCO)c1ccccc1 yielded a Potency of 4060 µM.
Work on CC(C)[C@@H]1CC[C@@H](C)C[C@H]1O yielded a Potency of 121 µM.
Work on Cc1ccc(C)cc1 yielded a Potency of 83.5 µM.
Compound CN(C)N has a Potency of 131 µM.
COC(=O)c1ccc([N+](=O)[O-])cc1 showed a Potency of 131 µM.
NC(=O)c1c(Cl)cccc1Cl showed a Potency of 2470 µM.
Compound c1ccc2c(c1)oc1ccccc12 has a Potency of 8.92 µM.
For COc1cccc(C=O)c1O, the Potency was 15.8 µM.
Work on O=C1NS(=O)(=O)c2ccccc21 yielded a Potency of 82000 µM.
With ClC=C(Cl)Cl the Potency was 336 µM.
C=Cc1ccc(C(C)(C)C)cc1 gave a Potency of 3.06 µM.
Work on CC(C)(C)SC(C)(C)C yielded a Potency of 199 µM.
For c1cc(CCc2ccncc2)ccn1, the Potency was 820 µM.
Work on c1ccncc1 yielded a Potency of 1260 µM.
O=Cc1cccc(Oc2ccc(Cl)c(Cl)c2)c1 showed a Potency of 1.12 µM.
Work on CN(C)c1ccc(C=O)cc1 yielded a Potency of 306 µM.
In the case of CNC(=O)Oc1ccc(C(C)(C)C)cc1, the Potency is reported as 48.2 µM.
COCCN showed a Potency of 6980 µM.
Compound Brc1ccccc1Br has a Potency of 17.2 µM.
C=Cc1cccc(CCl)c1 showed a Potency of 2.03 µM.
Cc1ccc(N(C)C)cc1 was tested, and the Potency was 362 µM.
With Oc1c(Cl)cc(Cl)c(Cl)c1Cc1c(O)c(Cl)cc(Cl)c1Cl the Potency was 0.0516 µM.
Compound CC(=O)C(C)CN(C)C (configuration not stated) has a Potency of 65.8 µM.
With CN(C)CCCCl the Potency was 841 µM.
COC(C)=O was tested, and the Potency was 4820 µM.
For Oc1ccc(Oc2ccccc2)cc1, the Potency was 26.6 µM.
For CC(C)CO, the Potency was 19300 µM.
O=C(O)c1ccccc1 showed a Potency of 3360 µM.
In the case of CC(=O)Nc1ccccc1O, the Potency is reported as 179 µM.
C[N+](C)(C)c1ccccc1 was tested, and the Potency was 924 µM and 1000 µM.
For CSCCCCCCSC, the Potency was 56.6 µM.
With CCCCCCCCC(C)=O the Potency was 30.9 µM.
With Cc1ccc([N+](=O)[O-])c(OP(=O)(Oc2cc(C)ccc2[N+](=O)[O-])Oc2cc(C)ccc2[N+](=O)[O-])c1 the outcome was “inactive; moa not determined either due to lack of toxicity at saturation or late test res”.
CCC(=O)c1ccc(N)cc1 showed a Potency of 979 µM.
Compound COc1cc(Cl)c(Cl)cc1O has a Potency of 23.2 µM.
CNC(=O)Oc1cccc2ccccc12 was tested, and the Potency was 43.5 µM.
CCCCCN gave a Potency of 2030 µM.
Compound CCCCOC(=O)CCC(=O)OCCCC has a Potency of 19.4 µM.
CCOP(=S)(OCC)SCSC(C)(C)C was tested, and the Potency was 0.0461 µM.
N#Cc1ccccn1 gave a Potency of 6970 µM.
Compound CC(C)C(C)N (configuration not stated) has a Potency of 3260 µM.
For CCCCCC(C)=O, the Potency was 1150 µM.
Work on C=C(C)C(=O)OCCO yielded a Potency of 1740 µM.
In the case of Clc1cc(Cl)c(SSc2cc(Cl)c(Cl)cc2Cl)cc1Cl, the outcome is reported as “inactive; moa not determined either due to lack of toxicity at saturation or late test res”.
In the case of CCCO, the Potency is reported as 75700 µM.
CCC(C)C=O (configuration not stated) showed a Potency of 116 µM.
Nc1ccccc1C(=O)c1ccc(Cl)cc1 showed a Potency of 9.15 µM.
Compound C=CC(O)CCC (configuration not stated) has a Potency of 304 µM.
With Brc1ccsc1 the Potency was 38 µM.
C=CC(=O)OCCO was tested, and the Potency was 41.4 µM.
O=C1CCCCC1 showed a Potency of 6330 µM.
OC1CCCCC1 was tested, and the Potency was 7030 µM.
For C#CC1(O)CCCCC1, the Potency was 2060 µM.
OCCCl was tested, and the Potency was 667 µM.
With CC12CCC(CC1)C(C)(C)O2 the Potency was 661 µM.
With O=c1cc[nH]c(=O)[nH]1 the outcome was “inactive; moa not determined either due to lack of toxicity at saturation or late test res”.
For CCCCC(CC)CO (configuration not stated), the Potency was 217 µM.
C1OCOCO1 showed a Potency of 66100 µM.
In the case of Clc1cccc(Cl)c1C(Cl)Cl, the Potency is reported as 4.22 µM.
CC(=O)c1ccc(Cl)c(Cl)c1Cl gave a Potency of 8.95 µM.
In the case of Oc1ccccc1, the Potency is reported as 347 µM.
COC(=O)c1ccc(Cl)cc1 gave a Potency of 64 µM.
C=C(C)[C@H]1Cc2c(ccc3c2O[C@@H]2COc4cc(OC)c(OC)cc4[C@@H]2C3=O)O1 showed a Potency of 0.0132 µM.
NCCCN1CCN(CCCN)CC1 was tested, and the Potency was 15500 µM.
Work on CC/C=C\CCO yielded a Potency of 3800 µM.
CC(C)C1=CC2=CC[C@@H]3[C@](C)(CCC[C@@]3(C)C(=O)O)[C@H]2CC1 gave a Potency of 7.87 µM.
For CCOc1cc(C=O)ccc1O, the Potency was 527 µM.
For Cc1ccc(OP(=O)(Oc2ccc(C)c(C)c2)Oc2ccc(C)c(C)c2)cc1C, the outcome was “inactive; moa not determined either due to lack of toxicity at saturation or late test res”.
ClC(Cl)=C(Cl)Cl was tested, and the Potency was 99.5 µM.
CCc1ccccn1 gave a Potency of 3860 µM.
In the case of Nc1cccc(OCc2ccccc2)c1, the Potency is reported as 45.9 µM.
Nc1ccc(Br)cc1 showed a Potency of 276 µM.
In the case of C=CC(C)(O)CC/C=C(\C)CCC=C(C)C (configuration not stated), the Potency is reported as 6.43 µM.
CC/C=C/CCO gave a Potency of 2710 µM.
CCSCCCCSCC was tested, and the Potency was 34 µM.
Compound CCCCc1ccc(N)cc1 has a Potency of 68 µM.
CCO showed a Potency of 319000 µM.
Work on CC(C)=O yielded a Potency of 123000 µM.
C=CCC(O)C=C (configuration not stated) was tested, and the Potency was 388 µM.
CCCCCCCCCO was tested, and the Potency was 39.5 µM.
Cc1ccc(C)c(C)c1 gave a Potency of 64.2 µM.
C=C(C)C(=O)OC(C)C showed a Potency of 296 µM.
CN(C)c1ccc(P(=O)(c2ccc(N(C)C)cc2)c2ccc(N(C)C)cc2)cc1 was tested, and the outcome was “inactive; moa not determined either due to lack of toxicity at saturation or late test res”.
CC1(C)C(C=C(Cl)Cl)C1C(=O)OCc1cccc(Oc2ccccc2)c1 (configuration not stated) gave a Potency of 0.0409 µM.
For O=[N+]([O-])c1ccc(Oc2ccc(Br)cc2)c([N+](=O)[O-])c1, the outcome was “inactive; moa not determined either due to lack of toxicity at saturation or late test res”.
Work on NC(=O)c1ccc(Cl)cc1Cl yielded a Potency of 503 µM.
With CC#N the Potency was 40100 µM.
Compound CC(=O)c1cccc(N)c1 has a Potency of 2830 µM.
With c1ccc(-c2cccc(-c3ccccc3)n2)cc1 the Potency was 0.908 µM.
For CC1(C)CCC(C)(C)O1, the Potency was 1310 µM.
C=CCCCCCCC=C was tested, and the Potency was 2.1 µM.
CCCCCCC1CCC(=O)O1 (configuration not stated) showed a Potency of 106 µM.
CCCCCCCCCCCC(N)=O was tested, and the outcome was “inactive; moa not determined either due to lack of toxicity at saturation or late test res”.
Work on C#CC(C)(O)CCC(C)C (configuration not stated) yielded a Potency of 349 µM.
For CCCCCCCCCCC(C)=O, the Potency was 6.4 µM.
In the case of O=Cc1ccccc1F, the Potency is reported as 10.9 µM.
Work on CC(C)SSC(C)C yielded a Potency of 55.3 µM.
Nc1ccc(F)c(C(F)(F)F)c1 was tested, and the Potency was 168 µM.
With Oc1c(Cl)c(Cl)c(Cl)c(Cl)c1Cl the Potency was 0.912 µM.
With CCCCCCC(=O)CCCCCC the outcome was “inactive; moa not determined either due to lack of toxicity at saturation or late test res”.
